Results from PMC2668073, “N- and C-Terminal Domains of the Calcium Binding Protein EhCaBP1 of the Parasite Entamoeba histolytica Display Distinct Functions” (PLoS ONE, 2009).

Target: T1, EhCaBP1 (Entamoeba histolytica, UniProt P38505)
T1 construct: gene CaBP1; trimer, Phe site between EF1 and EF2 of neighbouring molecules; C-terminal half without density; strain printed for amoeba culture only
Assay: X-ray crystal structure of the complex (co-crystallisation)
Format: binding
Settings: 2 mM phenylalanine, 10 mM CaCl2 in protein solution; crystals from 63-65% MPD, 5 mM CaCl2, 50 mM acetate pH 4, 16 °C; hydrophobic pocket between EF1 and EF2 of adjacent molecules

T1 sequence (P38505 whole entry): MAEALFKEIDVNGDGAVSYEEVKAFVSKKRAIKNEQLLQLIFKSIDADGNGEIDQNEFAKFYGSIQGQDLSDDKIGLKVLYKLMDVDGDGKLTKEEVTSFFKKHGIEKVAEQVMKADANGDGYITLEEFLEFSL

## N[C@@H](Cc1ccccc1)C(=O)O [Phenylalanine]
  X-ray crystal structure of the complex (co-crystallisation): hydrophobic pocket formed at the interface between EF1 and EF2 in the assembled domain
